Experimental data as given in US10342796B2, “Acrylanilide derivative, preparation method, and applications thereof in pharmacy” (Ancureall Pharmaceutical (Shanghai) Co., Ltd., priority 2015, dated 2019).
Read-outs that look alike come from different tables or passages of the source.

How the values were obtained:
Test in all cases: Growth inhibition GI50 in vitro (CCK8/MTT, 72 h)
H1975 (EGFR L858R/T790M) = type: cell-based, human; details: Homo sapiens, NCI-H1975
HCC827 (EGFR dE746-A750) = type: cell-based, human; details: Homo sapiens
PC-9 (EGFR dE746-A750) = type: cell-based, human; details: Homo sapiens
N87 (HER2 Amp) = type: cell-based, human; details: Homo sapiens
AU565 (Her2 amp) = type: cell-based, human; details: Homo sapiens
SK-BR-3 (Her2 amp) = type: cell-based, human; details: Homo sapiens
Calu-3 (Her2 amp) = type: cell-based; details: Homo sapiens
Procedure: Human lung adenocarcinoma cell line Calu-3 (ATCC) was cultured with 1×MEM complete medium (10% FBS, 1% double-antibiotics, 1% NEAA (Gibco), 2 mM glutamine and 1 mM of sodium pyruvate). Human breast cancer cell line SK-BR-3 was cultured with McCOY'S5A complete medium (10% FBS). Human colon cancer cell line SNU1040 (HER2 V777M positive) (ATCC) and human bronchoalveolar adenocarcinoma cell line NCI-H1781 (expressing HER2 exon 20 G776VC mutation) (ATCC) were cultured with 1×RPMI1640 complete medium (10% FBS), respectively.
The suspension cells were collected by centrifugation. The supernatant was discard and the cell pellet was resuspended and counted. Different cell concentrations (5˜10×10^4 cells/mL) were prepared according to the growth cycle of each cell line and then seeded on a 96-well plate (Corning), 100 μL/well. The cells were incubated over night at 37° C., 5% CO2. The compounds were added to the cells on the second day with 2 wells in parallel. The final concentration of organic solvent shall not exceed 1%. The cells were continually incubated for 72 h, and then subjected to MTT assay.
The present compounds and the reference compounds were dissolved with DMSO (Sigma), respectively. […] The storage concentration of compounds was 10 mM and kept at −20° C. They were diluted by 2 times or 10 times with serial dilution before using.
Dojindo CCK8 reagent kit was used as MTT assay. […] FC meter was used as microplate reader.
Adherent cell culture medium was discard and immediately replaced with fresh prepared medium which contains 10% CCK8 reagent (100 μL/well). For the suspension cells, CCK8 was directly added to 10% of the final concentration. The cells were continually incubated for 1˜4 h. When the color of control wells turned to dark yellow, the absorption value was measured at OD450 nm. The cell growth rate was calculated according to the following formula: cell growth rate (%)=100*(T−T0)/(C−T0), T=optical density of drug treatment cell well—optical density of blank control well; T0=optical density of cell well before drug treatment—optical density of blank control well; C=optical density of cell well of solvent control group—optical density of blank control well. […] The experiment was independently repeated 1˜3 times, and subject to biological statistical analysis.

H292 (EGFR WT) = type: cell-based; details: Homo sapiens, NCI-H292
[1] = system: A431 (EGFR WT, amplification and high expression); type: cell-based, human; details: Homo sapiens, A-431
A549 (EGFR WT) = type: cell-based, human; details: Homo sapiens
[2] = system: H1299 (EGFR wt, Nras Q61K); type: cell-based, human; details: Homo sapiens, NCI-H1299
[3] = system: H460 (EGFR wt, Kras G61H); type: cell-based, human; details: Homo sapiens, NCI-H460
[4] = system: PC-9ER (EGFR delE746-A750/T790M); type: cell-based, human; details: Homo sapiens, PC-9/ER; EGFR mutant cell line; range of GI50; read-out: GI50 PC9ER
[5] = H1975, EGFR L858R/T790M, read-out: GI50
[6] = HCC827, EGFR dE746-A750, read-out: GI50
[7] = PC-9, EGFR dE746-A750, read-out: GI50
[8] = N87, EGFR wt, Her2 amp, read-out: GI50
[9] = AU565, EGFR wt, Her2 amp, read-out: GI50
[10] = A549, EGFR wt, Kras G12S, read-out: GI50
[11] = H1299, EGFR wt, Nras Q61K, read-out: GI50
[12] = H460, EGFR wt, Kras G61H, read-out: GI50
[13] = EGFR mutant cell line, range of GI50, read-out: GI50 H1975
[14] = HCC827, EGFR mutant cell line, range of GI50, read-out: GI50 HCC827
[15] = EGFR mutant cell line, range of GI50, read-out: GI50 PC-9
[16] = HER2 positive cell line, range of GI50, read-out: GI50 N87
[17] = AU565, HER2 positive cell line, range of GI50, read-out: GI50 AU-565
[18] = SK-BR-3, HER2 positive cell line, range of GI50, read-out: GI50 SK-BR-3
[19] = EGFR wild type cell line, range of GI50, read-out: GI50 A431
[20] = A549, EGFR wild type cell line, range of GI50, read-out: GI50 A549
[21] = EGFR wild type cell line, range of GI50, read-out: GI50 H1299
[22] = EGFR wild type cell line, range of GI50, read-out: GI50 H460

Row | Compound | GI50 (H1975 (EGFR L858R/T790M); [5]) | GI50 (HCC827 (EGFR dE746-A750); [6]) | GI50 (PC-9 (EGFR dE746-A750); [7]) | GI50 (N87 (HER2 Amp); [8]) | GI50 (AU565 (Her2 amp); [9]) | GI50 (H292 (EGFR WT); H292, EGFR wt, read-out: GI50) | GI50 ([1]; A431, EGFR wt, read-out: GI50) | GI50 (A549 (EGFR WT); [10]) | GI50 [2, 11] | GI50 (H1975 (EGFR L858R/T790M); [13]) | GI50 (HCC827 (EGFR dE746-A750); [14]) | GI50 (PC-9 (EGFR dE746-A750); [15]) | GI50 [4] | GI50 (N87 (HER2 Amp); [16]) | GI50 (AU565 (Her2 amp); [17]) | GI50 (SK-BR-3 (Her2 amp); [18]) | GI50 [1, 19] | GI50 (A549 (EGFR WT); [20]) | GI50 [2, 21] | GI50 [3, 22] | also measured
1 | C=CC(=O)Nc1cc(Nc2nccc(-c3cn(C)c4ccccc34)n2)c(OC)cc1N(C)CCN(C)C [AZD9291, reference compound] | 15.6 nM | 15.6 nM | 13.9 nM | 234 nM | 312 nM | > 1000 nM | […] | > 1000 nM | > 1000 nM | – | – | – | – | – | – | – | – | – | – | – | GI50 (H1975 (EGFR L858R/T790M); Table 15, 1000 nM to 0.03 nM serial dilution, read-out: GI50 H1975 (EGFR L858R/T790M)): 15.6 nM; GI50 (PC-9 (EGFR dE746-A750); Table 15, 1000 nM to 0.03 nM serial dilution, read-out: GI50 PC-9 (EGFR dE746-A750)): 13.9 nM; GI50 (N87 (HER2 Amp); Table 16, 1000 nM to 0.03 nM serial dilution, read-out: GI50 N87 (HER2 amp)): 219 nM; GI50 (SK-BR-3 (Her2 amp); SK-BR-3): 643 nM; GI50 (Calu-3 (Her2 amp); Calu-3, Table 16, 1000 nM to 0.03 nM serial dilution, read-out: GI50 Calu3 (HER2 amp)): 657 nM; GI50 (Calu-3 (Her2 amp); Calu-3, EGFR wt, Her2 amp, read-out: GI50): 686 nM; GI50 (H292 (EGFR WT); Table 15, 1000 nM to 0.03 nM serial dilution, read-out: GI50 H292 (EGFR WT)): > 1000 nM; GI50 (A549 (EGFR WT); A549, Table 15, 1000 nM to 0.03 nM serial dilution, read-out: GI50 A549 (EGFR WT)): > 1000 nM; GI50 [3, 12]: > 1000 nM
2 | C=CC(=O)Nc1cc(Nc2nccc(-n3ccc4ccc(F)cc43)n2)c(OC)cc1N(C)CCN(C)C [Compound 63, N-(5-(4-(6-fluoro-1H-indol-1-yl)-pyrimidin-2-ylamino)-2-((2-(dimethylamino)ethyl)-methyl-amino)-4-methoxyl-phenyl)-acrylamide] | – | – | – | – | – | – | – | – | – | 10 to 100 nM | < 10 nM | < 10 nM | 10 to 100 nM | 10 to 100 nM | 100 to 1000 nM | 100 to 1000 nM | 100 to 1000 nM | > 1000 nM | > 1000 nM | > 1000 nM | –
3 | C=CC(=O)Nc1cc(Nc2nccc(-n3cnc4ccccc43)n2)c(OC)cc1N(C)CCN(C)C [Compound 106] | 15.2 nM | 12.6 nM | 15.6 nM | 23.6 nM | 19.5 nM | > 1000 nM | 498 nM | > 1000 nM | > 1000 nM | 10 to 100 nM | 10 to 100 nM | 10 to 100 nM | 10 to 100 nM | 10 to 100 nM | 10 to 100 nM | 10 to 100 nM | 100 to 1000 nM | > 1000 nM | > 1000 nM | > 1000 nM | GI50 (SK-BR-3 (Her2 amp); SK-BR-3, EGFR wt, Her2 amp, read-out: GI50): 101 nM; GI50 [3, 12]: > 1000 nM
4 | C=CC(=O)Nc1cc(Nc2ncnc(Nc3cccc(Br)c3)n2)c(OC)cc1N(C)CCN(C)C [Compound 115, N-(5-(4-(3-bromo-phenylamino)-[1,3,5]triazin-2-ylamino)-2-((2-dimethylamino-ethyl)-methyl-amino)-4-methoxyl-phenyl)-acrylamide] | – | – | – | – | – | – | – | – | – | 10 to 100 nM | < 10 nM | < 10 nM | < 10 nM | < 10 nM | 10 to 100 nM | < 10 nM | 100 to 1000 nM | > 1000 nM | > 1000 nM | > 1000 nM | –
